Results reported in PubChem BioAssay (NCI).
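Tested at 5 concentrations; 48 h exposure; 96-well plates; endpoints linearly interpolated, else capped at highest concentration. GI50: concentration for 50% inhibition of growth. TGI is the concentration that stops growth completely.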

Key:
Test in all cases: inhibition of tumour cell growth, NCI panel, 48 h
786-0 renal = test system: 786-0 renal
A498 renal = test system: A498 renal
A549 NSCLC = test system: A549 NSCLC
ACHN renal = test system: ACHN renal
BT-549 breast = test system: BT-549 breast
CCRF-CEM leukemia = test system: CCRF-CEM leukemia
COLO 205 colon = test system: COLO 205 colon
DU-145 prostate = test system: DU-145 prostate
EKVX NSCLC = test system: EKVX NSCLC
HCC-2998 colon = test system: HCC-2998 colon
HCT-116 colon = test system: HCT-116 colon
HCT-15 colon = test system: HCT-15 colon
HL-60(TB) leukemia = test system: HL-60(TB) leukemia
HOP-62 NSCLC = test system: HOP-62 NSCLC
HOP-92 NSCLC = test system: HOP-92 NSCLC
HS 578T breast = test system: HS 578T breast
HT29 colon = test system: HT29 colon
IGROV1 ovarian = test system: IGROV1 ovarian
K-562 leukemia = test system: K-562 leukemia
KM12 colon = test system: KM12 colon
LOX IMVI melanoma = test system: LOX IMVI melanoma
M14 melanoma = test system: M14 melanoma
MALME-3M melanoma = test system: MALME-3M melanoma
MCF7 breast = test system: MCF7 breast
MDA-MB-231 breast = test system: MDA-MB-231 breast
MDA-MB-435 = test system: MDA-MB-435
MOLT-4 leukemia = test system: MOLT-4 leukemia
NCI-H226 lung = test system: NCI-H226 lung
NCI-H23 lung = test system: NCI-H23 lung
NCI-H460 lung = test system: NCI-H460 lung
NCI-H522 lung = test system: NCI-H522 lung
NCI/ADR-RES ovarian = test system: NCI/ADR-RES ovarian
OVCAR-3 ovarian = test system: OVCAR-3 ovarian
OVCAR-4 ovarian = test system: OVCAR-4 ovarian
OVCAR-5 ovarian = test system: OVCAR-5 ovarian
OVCAR-8 ovarian = test system: OVCAR-8 ovarian
PC-3 prostate = test system: PC-3 prostate
RPMI-8226 leukemia = test system: RPMI-8226 leukemia
RXF 393 renal = test system: RXF 393 renal
SF-268 CNS = test system: SF-268 CNS
SF-295 CNS = test system: SF-295 CNS
SF-539 CNS = test system: SF-539 CNS
SK-MEL-2 melanoma = test system: SK-MEL-2 melanoma
SK-MEL-28 melanoma = test system: SK-MEL-28 melanoma
SK-MEL-5 melanoma = test system: SK-MEL-5 melanoma
SK-OV-3 ovarian = test system: SK-OV-3 ovarian
SN12C renal = test system: SN12C renal
SNB-19 CNS = test system: SNB-19 CNS
SNB-75 CNS = test system: SNB-75 CNS
SW-620 colon = test system: SW-620 colon
T-47D breast = test system: T-47D breast
TK-10 renal = test system: TK-10 renal
U251 CNS = test system: U251 CNS
UACC-257 melanoma = test system: UACC-257 melanoma
UACC-62 melanoma = test system: UACC-62 melanoma
UO-31 renal = test system: UO-31 renal

Compound: CC(=O)c1cc2c(c(O)c1C)C(=O)C(=O)c1c(O)cccc1-2
- GI50 (786-0 renal): 421 nM
- TGI (786-0 renal): 897 nM
- GI50 (A498 renal): 962 nM
- TGI (A498 renal): 2380 nM
- GI50 (A549 NSCLC): 565 nM
- TGI (A549 NSCLC): 1240 nM
- GI50 (ACHN renal): 289 nM
- TGI (ACHN renal): 1120 nM
- GI50 (BT-549 breast): 140 nM
- TGI (BT-549 breast): 274 nM
- GI50 (CCRF-CEM leukemia): 460 nM
- TGI (CCRF-CEM leukemia): > 100000 nM
- GI50 (COLO 205 colon): 342 nM
- TGI (COLO 205 colon): 872 nM
- GI50 (DU-145 prostate): 56.8 nM
- TGI (DU-145 prostate): 102 nM
- GI50 (EKVX NSCLC): 673 nM
- TGI (EKVX NSCLC): 3360 nM
- GI50 (HCC-2998 colon): 330 nM
- TGI (HCC-2998 colon): 776 nM
- GI50 (HCT-116 colon): 216 nM
- TGI (HCT-116 colon): 506 nM
- GI50 (HCT-15 colon): 113 nM
- TGI (HCT-15 colon): 302 nM
- GI50 (HL-60(TB) leukemia): 89.5 nM
- TGI (HL-60(TB) leukemia): 271 nM
- GI50 (HOP-62 NSCLC): 175 nM
- TGI (HOP-62 NSCLC): 365 nM
- GI50 (HOP-92 NSCLC): 906 nM
- TGI (HOP-92 NSCLC): 1880 nM
- GI50 (HS 578T breast): 248 nM
- TGI (HS 578T breast): 1300 nM
- GI50 (HT29 colon): 319 nM
- TGI (HT29 colon): 1490 nM
- GI50 (IGROV1 ovarian): 521 nM
- TGI (IGROV1 ovarian): 1340 nM
- GI50 (K-562 leukemia): 281 nM
- TGI (K-562 leukemia): 1050 nM
- GI50 (KM12 colon): 411 nM
- TGI (KM12 colon): 1740 nM
- GI50 (LOX IMVI melanoma): 53.9 nM
- TGI (LOX IMVI melanoma): 101 nM
- GI50 (M14 melanoma): 60.5 nM
- TGI (M14 melanoma): 121 nM
- GI50 (MALME-3M melanoma): 65.4 nM
- TGI (MALME-3M melanoma): 139 nM
- GI50 (MCF7 breast): 57.6 nM
- TGI (MCF7 breast): 134 nM
- GI50 (MDA-MB-231 breast): 277 nM
- TGI (MDA-MB-231 breast): 2260 nM
- GI50 (MDA-MB-435): 56.3 nM
- TGI (MDA-MB-435): 107 nM
- GI50 (MOLT-4 leukemia): 348 nM
- TGI (MOLT-4 leukemia): 1440 nM
- GI50 (NCI-H226 lung): 554 nM
- TGI (NCI-H226 lung): 1050 nM
- GI50 (NCI-H23 lung): 66.6 nM
- TGI (NCI-H23 lung): 154 nM
- GI50 (NCI-H460 lung): 460 nM
- TGI (NCI-H460 lung): 1090 nM
- GI50 (NCI-H522 lung): 281 nM
- TGI (NCI-H522 lung): 888 nM
- GI50 (NCI/ADR-RES ovarian): 360 nM
- TGI (NCI/ADR-RES ovarian): 1390 nM
- GI50 (OVCAR-3 ovarian): 76.8 nM
- TGI (OVCAR-3 ovarian): 280 nM
- GI50 (OVCAR-4 ovarian): 199 nM
- TGI (OVCAR-4 ovarian): 636 nM
- GI50 (OVCAR-5 ovarian): 526 nM
- TGI (OVCAR-5 ovarian): 1010 nM
- GI50 (OVCAR-8 ovarian): 308 nM
- TGI (OVCAR-8 ovarian): 936 nM
- GI50 (PC-3 prostate): 510 nM
- TGI (PC-3 prostate): 2030 nM
- GI50 (RPMI-8226 leukemia): 615 nM
- TGI (RPMI-8226 leukemia): 1900 nM
- GI50 (RXF 393 renal): 157 nM
- TGI (RXF 393 renal): 416 nM
- GI50 (SF-268 CNS): 133 nM
- TGI (SF-268 CNS): 471 nM
- GI50 (SF-295 CNS): 290 nM
- TGI (SF-295 CNS): 763 nM
- GI50 (SF-539 CNS): 150 nM
- TGI (SF-539 CNS): 285 nM
- GI50 (SK-MEL-2 melanoma): 272 nM
- TGI (SK-MEL-2 melanoma): 922 nM
- GI50 (SK-MEL-28 melanoma): 163 nM
- TGI (SK-MEL-28 melanoma): 365 nM
- GI50 (SK-MEL-5 melanoma): 56.5 nM
- TGI (SK-MEL-5 melanoma): 105 nM
- GI50 (SK-OV-3 ovarian): 565 nM
- TGI (SK-OV-3 ovarian): 1120 nM
- GI50 (SN12C renal): 59.2 nM
- TGI (SN12C renal): 117 nM
- GI50 (SNB-19 CNS): 163 nM
- TGI (SNB-19 CNS): 345 nM
- GI50 (SNB-75 CNS): 153 nM
- TGI (SNB-75 CNS): 301 nM
- GI50 (SW-620 colon): 120 nM
- TGI (SW-620 colon): 387 nM
- GI50 (T-47D breast): 554 nM
- TGI (T-47D breast): 3170 nM
- GI50 (TK-10 renal): 560 nM
- TGI (TK-10 renal): 1010 nM
- GI50 (U251 CNS): 247 nM
- TGI (U251 CNS): 659 nM
- GI50 (UACC-257 melanoma): 188 nM
- TGI (UACC-257 melanoma): 366 nM
- GI50 (UACC-62 melanoma): 164 nM
- TGI (UACC-62 melanoma): 354 nM
- GI50 (UO-31 renal): 247 nM
- TGI (UO-31 renal): 742 nM
